According to US12077503B2, “Substituted cyclic amides and their use as herbicides” (FMC CORPORATION, priority 2015, dated 2024):
Read-outs that look alike come from different tables or passages of the source.

What was measured:
Format in all cases: in vivo
[1] = system: pigweed (Amaranthus retroflexus); experiment: Test A postemergence; conditions: Amaranthus retroflexus, post-emergence, 240 h; for pest or weed control at 125 g/ha: 125 g ai/ha, postemergence
Procedure, shortened: (§1)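 Greenhouse, ~10 d after spray; visual injury vs untreated controls, 0 = no effect, 100 = complete control. Preemergence: directed soil spray over planted seeds. Postemergence: plants 2–10 cm, 1–2 leaf stage. Loam/sand blend. Compound in non-phytotoxic solvent with surfactant.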

[2] = system: ryegrass, Italian (Italian ryegrass, Lolium multiflorum); experiment: Test A postemergence; conditions: Lolium multiflorum, post-emergence, 240 h; for pest or weed control at 125 g/ha: 125 g ai/ha, postemergence
Procedure, shortened: as §1

[3] = system: wheat (Triticum aestivum); experiment: Test A postemergence; conditions: Triticum aestivum, post-emergence, 240 h, 0 to 100 scale (0 no effect, 100 complete control), read-out: Plant response rating, Wheat
Procedure, shortened: as §1

[4] = system: Kochia (Kochia scoparia); experiment: Test A postemergence; conditions: Bassia scoparia, post-emergence, 240 h; for pest or weed control at 125 g/ha: 125 g ai/ha, postemergence
Procedure, shortened: as §1

[5] = system: barnyardgrass (Echinochloa crus-galli); experiment: Test A postemergence; conditions: Echinochloa crus-galli, post-emergence, 240 h; for pest or weed control at 125 g/ha: 125 g ai/ha, postemergence
Procedure, shortened: as §1

[6] = system: corn (Zea mays); experiment: Test A postemergence; conditions: Zea mays, post-emergence, 240 h
Procedure, shortened: as §1

[7] = system: Galium (catchweed bedstraw, Galium aparine); experiment: Test A postemergence; conditions: Galium, post-emergence, 240 h; for pest or weed control at 125 g/ha: 125 g ai/ha, postemergence
Procedure, shortened: as §1

[8] = system: ragweed (common ragweed, Ambrosia elatior); experiment: Test A postemergence; conditions: Ambrosia artemisiifolia, post-emergence, 240 h; for pest or weed control at 125 g/ha: 125 g ai/ha, postemergence
Procedure, shortened: as §1

[9] = system: blackgrass (Alopecurus myosuroides); experiment: Test A postemergence; conditions: Alopecurus myosuroides, post-emergence, 240 h; for pest or weed control at 125 g/ha: 125 g ai/ha, postemergence
Procedure, shortened: as §1

[10] = system: giant foxtail (Setaria faberii); experiment: Test A postemergence; conditions: Setaria faberi, post-emergence, 240 h; for pest or weed control at 125 g/ha: 125 g ai/ha, postemergence
Procedure, shortened: as §1

[11] = system: sedge, umbrella (small-flower umbrella sedge, Cyperus difformis); experiment: Test B flooded paddy test; conditions: Cyperus difformis, 250 g ai/ha, Flood, read-out: Sedge, Umbrella plant response rating
Procedure, shortened: (§2)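 Plants at 2-leaf stage flooded to 3 cm above soil, with compounds applied directly to paddy water and that depth maintained. Plants kept in greenhouse 13–15 d. Visual rating versus controls on a 0 (no effect) to 100 (complete control) scale.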

[12] = system: rice (Oryra sativa); experiment: Test B flooded paddy test; conditions: Oryza sativa, 250 g ai/ha, Flood, read-out: Rice plant response rating
Procedure, shortened: as §2

[13] = system: ducksalad (Heteranthera limosa); experiment: Test B flooded paddy test; conditions: Heteranthera limosa, 250 g ai/ha, Flood, read-out: Ducksalad plant response rating
Procedure, shortened: as §2

[14] = system: barnyardgrass (Echinochloa crus-galli); experiment: Test B flooded paddy test; conditions: Echinochloa crus-galli, 250 g ai/ha, Flood, read-out: Barnyardgrass plant response rating
Procedure, shortened: as §2

[15] = system: Kochia (Kochia scoparia); experiment: Test A preemergence; conditions: Bassia scoparia, pre-emergence, 240 h, preemergence; for pest or weed control at 125 g/ha: 125 g ai/ha; for pest or weed control at 500 g/ha: 500 g ai/ha
Procedure, shortened: as §1

[16] = 0 to 100 scale where 0 is no effect and 100 is complete control
[17] = scale of 0 to 100 where 0 is no effect and 100 is complete control

CN1C[C@H](c2ccc(C(F)(F)F)cc2)[C@@H](C(=O)Nc2ccccc2)C1=O [Compound 1253]
90%: pest or weed control at 125 g/ha ([5]; visual injury vs untreated controls after approx. 10 d, 0 = no effect, 100 = complete control, read-out: Barnyardgrass plant response rating (0 to 100 scale)) | pest or weed control at 500 g/ha ([10]; Postemergence, 500 g ai/ha, visual injury, 0 to 100 scale (0 no effect, 100 complete control), approx. 10 d, read-out: Plant response rating, Foxtail, Giant)
70%: pest or weed control at 500 g/ha ([4]; Postemergence, 500 g ai/ha, visual injury, 0 to 100 scale (0 no effect, 100 complete control), approx. 10 d, read-out: Plant response rating, Kochia) | Corn plant response rating (crop injury, 0 = no effect, 100 = complete kill) at 500 g/ha ([6]; Postemergence, 500 g ai/ha, visual injury, 0 to 100 scale (0 no effect, 100 complete control), approx. 10 d)
100%: pest or weed control at 500 g/ha ([5]; Postemergence, 500 g ai/ha, visual injury, 0 to 100 scale (0 no effect, 100 complete control), approx. 10 d, read-out: Plant response rating, Barnyardgrass) | pest or weed control at 250 g/ha [13, 16]
0%: pest or weed control at 125 g/ha ([1]; visual injury vs untreated controls after approx. 10 d, 0 = no effect, 100 = complete control, read-out: Pigweed plant response rating (0 to 100 scale)) | plant injury at 125 g/ha ([6]; 125 g ai/ha, postemergence, visual injury vs untreated controls after approx. 10 d, 0 = no effect, 100 = complete control, read-out: Corn plant response rating (0 to 100 scale)) | pest or weed control at 125 g/ha ([8]; visual injury vs untreated controls after approx. 10 d, 0 = no effect, 100 = complete control, read-out: Ragweed plant response rating (0 to 100 scale)) | pest or weed control at 500 g/ha ([8]; Postemergence, 500 g ai/ha, visual injury, 0 to 100 scale (0 no effect, 100 complete control), approx. 10 d, read-out: Plant response rating, Ragweed) | pest or weed control at 250 g/ha [11, 16] | pest or weed control at 250 g/ha [12, 16]
40%: pest or weed control at 125 g/ha ([2]; visual injury vs untreated controls after approx. 10 d, 0 = no effect, 100 = complete control, read-out: Ryegrass, Italian plant response rating (0 to 100 scale)) | pest or weed control at 250 g/ha [14, 16]
50%: plant injury at 500 g/ha ([3]; Postemergence, 500 g ai/ha, visual injury, approx. 10 d) | pest or weed control at 125 g/ha ([7]; visual injury vs untreated controls after approx. 10 d, 0 = no effect, 100 = complete control, read-out: Galium plant response rating (0 to 100 scale)) | pest or weed control at 500 g/ha ([9]; Postemergence, 500 g ai/ha, visual injury, 0 to 100 scale (0 no effect, 100 complete control), approx. 10 d, read-out: Plant response rating, Blackgrass)
80%: pest or weed control at 125 g/ha ([10]; visual injury vs untreated controls after approx. 10 d, 0 = no effect, 100 = complete control, read-out: Foxtail, Giant plant response rating (0 to 100 scale)) | pest or weed control at 125 g/ha ([15]; visual injury rating, 0 to 100 scale where 0 is no effect and 100 is complete control, approximately 10 d, read-out: Kochia plant response rating) | pest or weed control at 500 g/ha ([15]; 0 to 100 scale where 0 is no effect and 100 is complete control, read-out: Kochia plant response rating)
60%: pest or weed control at 500 g/ha ([2]; Postemergence, 500 g ai/ha, visual injury, 0 to 100 scale (0 no effect, 100 complete control), approx. 10 d, read-out: Plant response rating, Ryegrass, Italian) | pest or weed control at 125 g/ha ([4]; visual injury vs untreated controls after approx. 10 d, 0 = no effect, 100 = complete control, read-out: Kochia plant response rating (0 to 100 scale)) | pest or weed control at 500 g/ha ([7]; Postemergence, 500 g ai/ha, visual injury, 0 to 100 scale (0 no effect, 100 complete control), approx. 10 d, read-out: Plant response rating, Galium)
30%: pest or weed control at 500 g/ha ([1]; Postemergence, 500 g ai/ha, visual injury, 0 to 100 scale (0 no effect, 100 complete control), approx. 10 d, read-out: Plant response rating, Pigweed) | pest or weed control at 125 g/ha ([9]; visual injury vs untreated controls after approx. 10 d, 0 = no effect, 100 = complete control, read-out: Blackgrass plant response rating (0 to 100 scale))

O=C1NC[C@H](c2cccc(C(F)(F)F)c2)[C@H]1C(=O)Nc1ccccc1C1CC1 [Compound 748]
25%: pest or weed control at 250 g/ha [12, 17]
40%: pest or weed control at 125 g/ha ([5]; visual injury after approximately 10 d, 0 to 100 scale (0 no effect, 100 complete control), read-out: Plant response rating, Barnyardgrass)
75%: pest or weed control at 250 g/ha [13, 17]
0%: pest or weed control at 125 g/ha ([1]; visual injury after approximately 10 d, 0 to 100 scale (0 no effect, 100 complete control), read-out: Plant response rating, Pigweed) | pest or weed control at 125 g/ha ([2]; visual injury after approximately 10 d, 0 to 100 scale (0 no effect, 100 complete control), read-out: Plant response rating, Ryegrass, Italian) | plant injury at 125 g/ha ([3]; 125 g ai/ha, postemergence, visual injury after approximately 10 d) | pest or weed control at 125 g/ha ([4]; visual injury after approximately 10 d, 0 to 100 scale (0 no effect, 100 complete control), read-out: Plant response rating, Kochia) | Corn plant response rating (crop injury, 0 = no effect, 100 = complete kill) at 125 g/ha ([6]; 125 g ai/ha, postemergence, visual injury after approximately 10 d, 0 to 100 scale (0 no effect, 100 complete control)) | pest or weed control at 125 g/ha ([7]; visual injury after approximately 10 d, 0 to 100 scale (0 no effect, 100 complete control), read-out: Plant response rating, Galium) | pest or weed control at 125 g/ha ([8]; visual injury after approximately 10 d, 0 to 100 scale (0 no effect, 100 complete control), read-out: Plant response rating, Ragweed) | pest or weed control at 125 g/ha ([9]; visual injury after approximately 10 d, 0 to 100 scale (0 no effect, 100 complete control), read-out: Plant response rating, Blackgrass) | pest or weed control at 125 g/ha ([10]; visual injury after approximately 10 d, 0 to 100 scale (0 no effect, 100 complete control), read-out: Plant response rating, Foxtail, Giant) | pest or weed control at 250 g/ha [11, 17] | pest or weed control at 250 g/ha [14, 17] | pest or weed control at 125 g/ha ([15]; visual rating after approx. 10 d, 0 to 100 scale where 0 is no effect and 100 is complete control, read-out: Plant response rating, Kochia) | pest or weed control at 500 g/ha ([15]; 0 to 100 scale, 0 = no effect, 100 = complete control, read-out: Plant response rating, Kochia)
